# Results published in patent US10414778B2, “Methods for treatment of resistant cancer” (New Mexico Tech University Research Park Corporation, priority 2016, dated 2019).
# Where two headings read alike, the source gives them in different places.
# Legend:
# Type in all cases: cell-based, human
# HeLa cells = test: MTT in vitro growth inhibition assay, HeLa; conditions: two independent experiments
# Procedure: (§1) Human cancer cell lines were obtained from the American Type Culture Collection (ATCC, Manassas, Va., USA), the European Collection of Cell Culture (ECACC, Salisbury, UK), and the Deutsche Sammlung von Mikroorganismen und Zellkulturen (DSMZ, Braunschweig, Germany). Human cervical adenocarcinoma HeLa cells were cultured in DMEM supplemented with 10% fetal bovine serum (FBS). Human mammary carcinoma MCF-7 cells were cultured in RPMI supplemented with 10% FBS. The U87 cells (ATCC HTB-14) were cultured in DMEM culture medium, while the A549 cells (DSMZ ACC107) were cultured in RPMI culture medium supplemented with 10% heat-inactivated FBS. The GBM Hs683 (ATCC HTB-138) and the T98G (ATCC CRL-1690) cell lines were cultivated in DMEM supplemented with 10% FBS. The GBM U251 cells (ECACC code 09063001) were cultured in 10% MEM. The human uterine sarcoma MES-SA and MES-SA/Dx5 cells were cultured in RPMI-1640 medium supplemented with 10% FBS with MES SA/Dx5 maintained in the presence of 500 nM Doxorubicin (Sigma™). The U373 glioblastoma cells (ECACC 08061901) were cultured in RPMI culture medium supplemented with 10% heat-inactivated FBS.
# (§2) Spirodienones 4a-m were subjected to in vitro growth inhibition 3-(4,5-dimethylthiazol-2-yl)-2,5-diphenyltetrazolium bromide (MTT) assays against two cell lines, human HeLa cervical and MCF-7 breast adenocarcinomas.
# (§3) All compounds were dissolved in DMSO at a concentration of either 100 mM or 50 mM prior to cell treatment. The cells were trypsinized and seeded at various cell concentrations depending on the cell type. The cells were grown for 24 h to 72 h, treated with compounds at concentrations ranging from 0.001 to 100 μM, and incubated for 48, 72, or 96 h in 100 or 200 μL media depending on the cell line used. Cells treated with 0.1% DMSO were used as a negative control, and cells treated with 1 μM phenyl arsine oxide (PAO) were used as a positive control.
# (§4) To determine the activities of the compounds of the invention toward cancer cells, cell lines treated with different compounds were subjected to an in vitro MTT growth assay using human cervical cancer (HeLa) and human adenocarcinoma (MCF-7) cell lines. The MTT growth assay is a colorimetric assay that measures the metabolic activity of cells via reduction of 3-(4,5-dimethylthiazol-2-yl)-2,5-diphenyltetrazolium bromide (MTT). The reduction of MTT occurs in metabolically-active cells and is characterized by a purple color, which can be quantified via spectrophotometry. A higher absorbance reading indicates a metabolically-active cell, while a low absorbance reading indicates low metabolic activity due to, for example, inhibition of cellular proliferation or cell death.
# (§5) The values in TABLE 4 are the mean and standard deviation calculated from two independent experiments, which were performed in 4 replicates.
# MCF-7 cells = test: MTT in vitro growth inhibition assay, MCF-7; conditions: two independent experiments
# Procedure: as §1, §2, §3, §4, §5
# A549 cells = test: MTT growth inhibition, A549 NSCLC; conditions: 48 hours, up to 100 μM, FIGS. 4-7
# Procedure: as §1, §3
# Drug-resistant cell lines (i.e., glioma: Hs683, U373, U251, U87, T98G; lung cancer: A549, H2073; uterine carcinoma: MES-SA/Dx5) were complemented with drug-sensitive cell lines, H1993 lung cancer and MES-SA uterine cancer, which were used as controls. […] The GI50 values were calculated after 48-96 hours of treatment with the indicated compounds in replicate using the MTT growth assay.
# Compounds 5l and 5g were further tested using the A549 lung cancer cell line to determine a dose-response effect on apoptosis-resistant cells. (FIGS. 4-7). […] The MTT assay was performed in four replicates after 48 hours of treatment with the indicated compounds relative to a DMSO control.
# H2073 cells = test: MTT growth inhibition, H2073 drug-resistant NSCLC; conditions: Homo sapiens, NCI-H2073, MTT
# Procedure: NSCLC cell lines H1993 and H2073 were obtained from the Hamon Center for Therapeutic Oncology Research at UT Southwestern Medical Center and cultured in RPMI-1640 medium (Mediatech, VA, USA) supplemented with 5% heat-inactivated FBS (Mediatech™), 100 units/mL penicillin and 0.1 mg/mL streptomycin (Sigma™). All cell lines were cultured in T25 flasks, maintained, and grown at 37° C., 95% humidity, 5% CO2.
# as §3
# Spirodienone 4l was evaluated against patient-derived NSCLC cell line H1993 and its drug-resistant variant, H2073. The patient-derived NSCLC cell line […] was obtained from a regrown tumor at a primary site after a patient relapsed several months later.
# (§6) Due to their high potencies, compounds 5l and 5g were used to determine the effects of the compounds on drug-resistant tumor cells. Drug-resistant cell lines (i.e., glioma: Hs683, U373, U251, U87, T98G; lung cancer: A549, H2073; uterine carcinoma: MES-SA/Dx5) were complemented with drug-sensitive cell lines, H1993 lung cancer and MES-SA uterine cancer, which were used as controls. Bulbispermine and paclitaxel were also used as controls. The GI50 values were calculated after 48-96 hours of treatment with the indicated compounds in replicate using the MTT growth assay.
# Compound 5l was further tested to determine the effect of compounds of the invention on drug-resistant tumor cells. A patient-derived non-small cell lung cancer (NSCLC) line, H1993, and the drug-resistant variant of H1993, H2073, were used for testing. The H1993 cell line was obtained from a lymph node metastasis isolated from the patient prior to chemotherapy. The H2073 cell line was derived from a regrown tumor at the primary site after the patient had relapsed several months after administration of the chemotherapy regimen.
# MES-SA/Dx5 cells = test: MTT growth inhibition, MDR uterine sarcoma MES-SA/Dx5; conditions: Homo sapiens, MES-SA/Dx5, MTT
# Procedure: as §1, §3
# Compound 4l was also evaluated against the MDR uterine sarcoma cell line (MES-SA/Dx5 to evaluate whether the compounds of the invention were substrates for the MDR cancer efflux systems. The MES-SA/Dx5 cell line was established from the parent uterine sarcoma MES-SA, grown in the presence of increasing concentrations of doxorubicin and is known to be resistant to a number of P-gp substrates.
# The selection of doxorubicin-resistant cells (MES-SA/Dx5 cell line) was performed by splitting the cells and allowing the cells to adhere overnight. The next day, the cells were initially exposed to a DOX concentration of 100 nM, which represented the GI50 concentration. The cells were maintained at this DOX concentration until their growth rate reached that of the untreated cells. The DOX concentration was then increased in two-fold increments following the same growth criteria at each concentration to a final DOX concentration of 500 nM. Each new DOX concentration required approximately 2 passages to reach the growth rate of the untreated cells.
# as §6
# [1] = Homo sapiens, HeLa, 48 h treatment, ± SD, read-out: cell viability GI50, HeLa
# [2] = Homo sapiens, MCF7, MCF-7, 48 h treatment, ± SD, read-out: cell viability GI50, MCF-7
# [3] = Homo sapiens, HeLa, Table 4, 48-hour treatment, mean and standard deviation, read-out: HeLa Cell Viability GI50
# [4] = Homo sapiens, MCF7, Table 4, 48-hour treatment, mean and standard deviation, read-out: MCF-7 Cell Viability GI50
SMILES,GI50 (HeLa cells; [1]) [µM],GI50 (MCF-7 cells; [2]) [µM],GI50 (HeLa cells; [3]) [µM],GI50 (MCF-7 cells; [4]) [µM],other results
O=C1C=CC2(C=C1)CCN(C(=O)C(F)(F)F)Cc1cc3c(cc12)OCO3 [Compound 4a],24 ± 2,30 ± 2,–,–,–
COc1cc2c(cc1OC)C1(C=CC(=O)C=C1)CCN(C(=O)C(F)(F)F)C2 [Compound 4b],83 ± 5,> 100,–,–,–
O=C1C=CC2(C=C1)CCN(C(=O)C(F)(F)F)Cc1cc3c(cc12)OCCO3 [Compound 4c],21 ± 1,34 ± 12,–,–,–
O=C1C=CC2(C=C1)CCN(C(=O)C(F)(F)F)Cc1c2ccc2c1OCO2 [Compound 4d],> 100,> 100,–,–,–
COc1cc2c(cc1OCc1ccccc1)CN(C(=O)C(F)(F)F)CCC21C=CC(=O)C=C1 [Compound 4e],38 ± 2,48 ± 3,–,–,–
COc1cc2c(cc1OCc1ccccc1)C1(C=CC(=O)C=C1)CCN(C(=O)C(F)(F)F)C2 [Compound 4f],34 ± 4,34 ± 2,–,–,–
O=C1C=CC2(C=C1)CCN(C(=O)C(F)(F)F)Cc1cc(OCc3ccccc3)c(OCc3ccccc3)cc12 [Compound 4g],17 ± 1,25 ± 2,–,–,–
O=C1C=CC2(C=C1)CCN(C(=O)C(F)(F)F)Cc1cc(OCc3ccccc3)ccc12 [Compound 4h],16,40 ± 1,–,–,–
O=C1C=CC2(C=C1)CCN(C(=O)C(F)(F)F)Cc1cccc(OCc3ccccc3)c12 [Compound 4i],11 ± 2,14 ± 2,–,–,–
O=C1C=C[C@]23CC[N@](Cc4cc5c(cc42)OCO5)[C@H]3C1 [Compound 5a],–,–,25.4 ± 3,23.9 ± 0.7,–
COc1cc2c(cc1OC)[C@@]13C=CC(=O)C[C@@H]1[N@](CC3)C2 [Compound 5b],–,–,63.5 ± 2.7,> 100,–
O=C1C=C[C@]23CC[N@](Cc4cc5c(cc42)OCCO5)[C@H]3C1 [Compound 5c],–,–,12.7 ± 2.3,18.6 ± 0.8,–
O=C1C=C[C@]23CC[N@](Cc4c2ccc2c4OCO2)[C@H]3C1 [Compound 5d],–,–,60.5 ± 4.7,72.5 ± 2.5,–
COc1cc2c(cc1OCc1ccccc1)C[N@@]1CC[C@@]23C=CC(=O)C[C@H]13 [Compound 5e],–,–,11.8 ± 0.5,14.5 ± 1,–
COc1cc2c(cc1OCc1ccccc1)[C@@]13C=CC(=O)C[C@@H]1[N@](CC3)C2 [Compound 5f],–,–,16.7 ± 1.8,16.8 ± 0.2,–
O=C1C=C[C@]23CC[N@](Cc4cc(OCc5ccccc5)ccc42)[C@H]3C1 [Compound 5h],–,–,7.9 ± 0.3,14.4 ± 1,–
O=C1C=C[C@]23CC[N@](Cc4cccc(OCc5ccccc5)c42)[C@H]3C1 [Compound 5i],–,–,7.37 ± 0.9,11,–
O=C1C=C[C@]23CC[N@](Cc4cscc42)[C@H]3C1 [Compound 5k],–,–,25.4 ± 5.2,43.6 ± 2.1,–
"CO[C@@H]1C=C[C@@]23c4cc5c(cc4CN(C[C@@H]2O)[C@H]3C1)OCO5 [Haemanthamine, reference compound]",–,–,–,–,"GI50 (HeLa cells; Table 4, 48-hour treatment, mean and standard deviation, read-out: HeLa Cell Viability GI50): 1.8 ± 0.3 µM; GI50 (MCF-7 cells; Table 4, 48-hour treatment, mean and standard deviation, read-out: MCF-7 Cell Viability GI50): 2.1 ± 0.2 µM"
"COc1cc([C@@H]2c3cc4c(cc3[C@H](O)[C@H]3COC(=O)[C@H]23)OCO4)cc(OC)c1OC [PODO, podophyllotoxin, reference compound]",–,–,–,–,"anti-proliferative activity, dose-response (absorbance at 595 nm) (A549 cells): did not display such potent anti-proliferative activity"
"CC(=O)O[C@H]1C(=O)[C@@]2(C)[C@H]([C@H](OC(=O)c3ccccc3)[C@]3(O)C[C@H](OC(=O)[C@H](O)[C@@H](NC(=O)c4ccccc4)c4ccccc4)C(C)=C1C3(C)C)[C@]1(OC(C)=O)CO[C@@H]1C[C@@H]2O [paclitaxel, reference compound]",–,–,–,–,"anti-proliferative activity, dose-response (absorbance at 595 nm) (A549 cells): did not display such potent anti-proliferative activity; GI50 (H2073 cells; Table 3, 48-96 h treatment, read-out: GI50 in vitro values, lung cancer H2073): 2400 nM; GI50 (H2073 cells; Table 5, 48-96 hours of treatment, read-out: GI50, Lung Cancer H2073): 2400 nM; GI50 (MES-SA/Dx5 cells; Table 3, 48-96 h treatment, read-out: GI50 in vitro values, uterine sarcoma MES-SA/Dx5): 10 µM; GI50 (MES-SA/Dx5 cells; Table 5, 48-96 hours of treatment, read-out: GI50, Sarcoma MES-SA/Dx5): 10 µM"
